Test results: article PMC7997032, “Organic synthesis and anti-influenza A virus activity of cyclobakuchiols A, B, C, and D” (PLoS ONE, 2021)
Values joined by “and” are separate entries in the source; they are usually repeats but may differ in a detail not shown here. Identical values can stand only once.

Legend:
[1] = test system: A/PR/8/34 virus; type: cell-based; details: 12.5 μM
[2] = test system: A/PR/8/34 virus; experiment: RT-qPCR of viral mRNAs (NP, NS1, PA, PB1, PB2, M2) in infected MDCK cells; type: cell-based, influenza A H1N1 virus
[3] = test system: A/WSN/33 virus; experiment: Influenza A viral growth assay (viral titer of culture media); type: cell-based, influenza A H1N1 virus; details: A/WSN/33 (WSN), 12.5uM, average of #1-3 exp (n=9)
[4] = test system: A/WSN/33 virus; experiment: Immunofluorescence staining of viral NP in influenza A virus-infected MDCK cells; details: WSN
[5] = test system: Nrf2; experiment: Nrf2 reporter assay (dual luciferase system) in MDCK cells; type: cell-based, canine
Experimental: An Nrf2 reporter assay based on the dual luciferase system was performed as previously described. The plasmid pNQO1-ARE (antioxidant response element)-Fluc, provided by Yamamoto M., expressed a Firefly luciferase gene driven by Nrf2 activation, while the plasmid pRL-TK-Rluc vector (Promega, CA, USA) expressed a Renilla luciferase gene driven by the herpes simplex viral thymidine kinase promoter as an internal control. MDCK cells were seeded in a 24-well plate at 1 × 10^5 cells/well and transfected with pNQO1-ARE-luc (0.25 μg) and pRL-TK-Rluc (0.25 μg). At 24 h post-transfection, the cells were treated with 12.5 μM cyclobakuchiols A–D in the infection medium at 37°C under 5% CO2. DMSO (0.125%) and 12.5 μM 1 were used as negative and positive controls, respectively. Total RNA was extracted from the MDCK cell lysates after 24 h of incubation. The levels of Firefly and Renilla luciferase mRNAs were analyzed by RT-qPCR and normalized to that of β-actin mRNA.

[6] = test system: NAD(P)H quinone oxidoreductase 1 (Nqo1); experiment: RT-qPCR of Nqo1 mRNA in MDCK cells with or without A/PR/8/34 virus; type: cell-based, canine; details: for NQO1 Canis lupus mRNA, ave / NQO1 Canis lupus mRNA, individual replicates: 12.5uM, MDCK, relative to virus - DMSO; for NQO1 Canis lupus mRNA, ave: ave of #1-3 exp; for NQO1 Canis lupus mRNA, individual replicates: replicates 1-3 of #1, #2, #3 exp, listed as Cyclobakuchiol A
[7] = test system: A/PR/8/34 virus; experiment: Influenza A viral growth assay (viral titer of culture media); type: cell-based, influenza A H1N1 virus; design: viral titer of culture media, individual replicate / viral titer of culture media, ave: unit not given here; details: A/PR/8/34 (PR8), 12.5uM, average of #1-3 exp (n=9)
[8] = test system: canine interferon-β (Ifn-β); experiment: RT-qPCR of Ifn-β mRNA in MDCK cells with or without A/PR/8/34 virus; type: cell-based; details: 12.5uM, relative to virus - DMSO; for MDCK IFN-b mRNA, ave: ave of #1-3 exp; for MDCK IFN-b mRNA, individual replicates: replicates 1-3 of #1, #2, #3 exp, listed as Cyclobakuchiol A
[9] = test system: A/PR/8/34 virus; experiment: Immunofluorescence staining of viral NP in influenza A virus-infected MDCK cells; details: for NP/DAPI (%) ave: average of 9 wells
Experimental: MDCK cells were seeded on a 96-well plate at 1 × 10^4 cells/well. […] Each mixture was added to the cells at 37°C in the presence of 5% CO2. […] After influenza A viral infection for 24 h, the cells were fixed with 4% paraformaldehyde in phosphate-buffered saline (PBS) for 30 min at 4°C and subsequently permeabilized by the addition of 0.3% Triton X-100 for 20 min at 25°C. A mouse primary antibody was used to detect the NP of A/PR/8/34 or A/WSN/33 viruses (FluA-NP 4F1; SouthernBiotech, AL, USA). Alexa Fluor488-conjugated goat anti-mouse IgG (H + L) antibody (Thermo Fisher Scientific) was used as the secondary antibody. Cell nuclei were then stained using diamidino-2-phenylindole (DAPI) (Thermo Fisher Scientific). Wells were photographed using a fluorescence microscope (BIOREVO BZ-X700; Keyence, Osaka, Japan). The proportion of influenza A NP-positive cells per DAPI-positive cells was calculated based on measurements recorded using BZ-X Analyzer software (Keyence).

[10] = 24h WB, average of 3 experiments
[11] = 24h WB, single experiment, listed as cyclo A
[12] = MDCK cells, PR8 virus, relative to DMSO (about 1), ave of #1-3 exp (9 values)
[13] = MDCK cells, PR8 virus, relative to DMSO, replicates 1-3 of #1, #2, #3 exp, listed as Cyclobakuchiol A

SMILES: C=C[C@]1(C)CCC(C(=C)C)C(c2ccc(O)cc2)C1 (stereo in doubt) [cyclobakuchiol A]
- NP/b-actin ave [1, 10]: 0.4278
- NS1/b-actin ave [1, 10]: 0.4825
- NP mean (western blot signal intensity, ImageJ) [1, 11]: 46.861 and 57.758 and 73.552
- NP/b-actin [1, 11]: 0.5523 and 0.2997 and 0.4315
- NS1/b-actin [1, 11]: 0.4154 and 0.4658 and 0.5663
- NS1 mean (western blot signal intensity, ImageJ) [1, 11]: 72.823 and 75.793 and 55.326
- expression level of NP protein compared with the 4 or 5 treatment groups ([1]; 24 h post-infection, Fig 7C): significantly reduced
- reduction in the level of NP mRNA compared with 4 and 5 ([2]; 12.5 μM, 24 h, Fig 6A): significantly stronger
- reduction in the level of PB2 mRNA compared with 5 ([2]; 12.5 μM, 24 h, Fig 6E): significantly stronger
- PR8 NP gene expression qPCR, ave ([2]; MDCK PR8, NP mRNA, relative (DMSO about 1), average of #1-3 exp (n=9)): 0.01993
- PR8 NP gene expression qPCR, individual replicate ([2]; MDCK PR8, NP mRNA, relative (DMSO about 1), replicates of #1-3 exp, listed as Cyclobakuchiol A): 0.004781 and 0.02173 and 0.01679 and 0.02307 and 0.03646 and 0.02695 and 0.03647 and 0.007215 and 0.005883
- PR8 NS1 gene expression qPCR, ave ([2]; MDCK PR8, NS1 mRNA, relative (DMSO about 1), average of #1-3 exp (n=9)): 0.01311
- PR8 NS1 gene expression qPCR, individual replicate ([2]; MDCK PR8, NS1 mRNA, relative (DMSO about 1), replicates of #1-3 exp, listed as Cyclobakuchiol A): 0.006023 and 0.01703 and 0.01038 and 0.0146 and 0.02282 and 0.01557 and 0.01791 and 0.008546 and 0.005121
- PR8 PA gene expression qPCR, ave ([2]; MDCK PR8, PA mRNA, relative (DMSO about 1), average of #1-3 exp (n=9)): 0.01493
- PR8 PA gene expression qPCR, individual replicate ([2]; MDCK PR8, PA mRNA, relative (DMSO about 1), replicates of #1-3 exp, listed as Cyclobakuchiol A): 0.007746 and 0.01438 and 0.00964 and 0.01502 and 0.02904 and 0.01721 and 0.0228 and 0.01256 and 0.005972
- PR8 M2 gene expression qPCR, ave [2, 12]: 0.01356
- PR8 PB1 gene expression qPCR, ave [2, 12]: 0.01089
- PR8 PB2 gene expression qPCR, ave [2, 12]: 0.01486
- PR8 M2 gene expression qPCR, individual replicates [2, 13]: 0.006283 and 0.01574 and 0.01119 and 0.01541 and 0.02852 and 0.01303 and 0.01716 and 0.01044 and 0.004303
- PR8 PB1 gene expression qPCR, individual replicates [2, 13]: 0.005833 and 0.007225 and 0.006699 and 0.007236 and 0.02285 and 0.01622 and 0.02095 and 0.006264 and 0.00475
- PR8 PB2 gene expression qPCR, individual replicates [2, 13]: 0.006621 and 0.01468 and 0.01232 and 0.01635 and 0.03014 and 0.01618 and 0.02349 and 0.009706 and 0.004275
- viral titer of culture media, ave ([3]; 12h): 10300
- viral titer of culture media, ave ([3]; 24h): 22944444
- viral titer of culture media, ave ([3]; 48h): 177111111
- viral titer of culture media, ave ([3]; 72h): 106555556
- NP/DAPI (%) ave ([4]; 3.13uM, ave of 9 values (3 exp)): 33.269%
- NP/DAPI (%) ave ([4]; 6.25uM, ave of 9 values (3 exp)): 28.3611%
- NP/DAPI (%) ave ([4]; 12.5uM, ave of 9 values (3 exp)): 27.0591%
- NP/DAPI (%) ave ([4]; 25uM, ave of 9 values (3 exp)): 29.2459%
- NP/DAPI (%) ave ([4]; ave summary, 3.13%): 33.269%
- NP/DAPI (%) ave ([4]; ave summary, 6.25%): 28.3611%
- NP/DAPI (%) ave ([4]; ave summary, 12.50%): 27.0591%
- NP/DAPI (%) ave ([4]; ave summary, 25%): 29.2459%
- Nrf2 activation (reporter assay) in contrast to DMSO ([5]; 12.5 μM, 24 h, MDCK cells): induced
- pNQO1-ARE-Luc NRF2 reporter assay, ave ([5]; 12.5uM, relative to DMSO trans+, ave of #1-3 exp): 1.46
- pNQO1-ARE-Luc NRF2 reporter assay, individual replicates ([5]; 12.5uM, relative to DMSO trans+, two values each of #1, #2, #3 exp, listed as Cyclobakuchiol A): 1.665 and 1.021 and 1.596 and 1.77 and 1.598 and 1.113
- relative mRNA level of Nqo1 compared with 4- and 5-treated cells [6]: significantly higher
- NQO1 Canis lupus mRNA, ave ([6]; virus + (PR8)): 1.589
- NQO1 Canis lupus mRNA, individual replicates ([6]; virus + (PR8)): 2.006 and 1.48 and 1.365 and 1.506 and 1.318 and 1.456 and 1.551 and 1.721 and 1.896
- NQO1 Canis lupus mRNA, ave ([6]; virus -): 1.2966
- NQO1 Canis lupus mRNA, individual replicates ([6]; virus -): 1.091 and 1.486 and 1.24 and 1.353 and 1.444 and 1.092 and 1.099 and 1.4686 and 1.396
- relative mRNA level of Nqo1 compared with DMSO ([6]; without A/PR/8/34 virus, 12.5 μM, 24 h): significantly upregulated
- viral titer of culture media, ave ([7]; 12h): 31111.1
- viral titer of culture media, ave ([7]; 48h): 28888.9
- viral titer of culture media, ave ([7]; 72h): 20000
- MDCK IFN-b mRNA, ave ([8]; virus +): 3.338
- MDCK IFN-b mRNA, individual replicates ([8]; virus +): 0.977 and 7.49 and 3.1238 and 7.575 and 1.945 and 2.0516 and 3.014 and 1.296 and 2.57
- MDCK IFN-b mRNA, ave ([8]; virus -): 4.43
- MDCK IFN-b mRNA, individual replicates ([8]; virus -): 0.3432 and 9.774 and 14.2997 and 12.0611 and 0.902 and 0.6358 and 0.8443 and 0.4235 and 0.5869
- percentage of influenza A NP-positive cells relative to DMSO ([9]; A/PR/8/34, 3.1 μM, 24 h, Fig 4B): significantly reduced
- NP/DAPI (%) ave ([9]; A/PR/8/34, 3.13 uM): 4.608%
- NP/DAPI (%) ave ([9]; A/PR/8/34, 6.25 uM): 1.65%
- NP/DAPI (%) ave ([9]; A/PR/8/34, 12.5 uM): 1.121%
- NP (NP-positive cell count) ([9]; A/PR/8/34, 12.5 uM, single well, listed as Cyclobaku. A): 4 and 2 and 3
- NP/DAPI (%) ave ([9]; A/PR/8/34, 25 uM): 0.8303%
- NP/DAPI (%) ([9]; A/PR/8/34, 25 uM, single well, listed as Cyclobaku. A): 2.804% and 0.7843% and 0.5666% and 0.5181% and 1.085% and 0.489% and 0.3145% and 0.3937%
- IC50 ([9]; Influenza A virus, PR/8, MDCK, read-out: half maximal (50%) inhibitory concentration (IC50)): 1.7 ± 0.8 µM
